The conditions of series [1]: cynomolgus monkey, in vivo, sc, 40 mg/kg.
Another series relates to full-length AR. Put plainly: Western blot of full-length AR in C4-2B cells (time course). Type of series: cell-based, human. The conditions noted are these: 24 hours and 48 hours, normalized to GAPDH. Here is the method: Protein levels in the cells were also analyzed. The cells were harvested in RIPA buffer containing protease inhibitors. The presence of bands for full-length AR was detected by western blot using AR antibody (N-20, SC-816, Santa Cruz Biotechnology).
Background: Immunoblotting shows a protein as a band on a membrane.

The conditions of series [2]: cynomolgus monkey, in vivo, sc, 40 mg/kg. The source holds these as a separate data set.
Procedure: (§1) Prior to the study, the monkeys were kept in quarantine for a 30-day period, during which the animals were observed daily for general health. The monkeys were 2-4 years old and weighed between 2 and 4 kg. Thirteen groups of four randomly assigned male cynomolgus monkeys each were injected subcutaneously with ISIS oligonucleotide or PBS. PBS solution or ISIS oligonucleotides, at a dose of 40 mg/kg, were administered with a loading regimen consisting of four doses on the first week of the study (days 1, 3, 5, and 7), followed by a maintenance regimen consisting of once weekly administration starting on Day 14 (weeks 2 to 6). Subcutaneous injections were performed in clock-wise rotations at 4 sites on the back; one site per dose. The injection sites were delineated by tattoo, while sedated using ketamine, and were separated by a minimum of 3 cm.
To evaluate the effect of ISIS oligonucleotides on kidney function, the monkeys were fasted overnight. Approximately, 1.5 mL of blood samples were collected from all the study groups on day 44. Blood was collected in tubes without anticoagulant for serum separation. The tubes were kept at room temperature for a minimum of 90 min and then centrifuged at 3,000 rpm for 10 min. Levels of BUN and creatinine were measured using a Toshiba 120FR NEO chemistry analyzer (Toshiba Co., Japan).
The conditions of series [3]: cynomolgus monkey, in vivo, sc, 40 mg/kg. This is another data set of the same source.
Another series deals with AR mRNA. Put plainly: AR mRNA expression in MDA-MB-453 breast cancer orthotopic model. The format is in vivo, human. The conditions noted are these: Study 2; tumor tissue, normalized to human actin; 50 mg/kg s.c. 5 days per week for 2 weeks.
For series [4] the following is noted: cynomolgus monkey, in vivo.
Procedure: as §1
The concentrations of the full-length oligonucleotide in the kidney and the liver of select treatment groups were measured. The method used is a modification of previously published methods (Leeds et al., 1996; Geary et al., 1999) which consist of a phenol-chloroform (liquid-liquid) extraction followed by a solid phase extraction.
Series [5] can be described thus: Body and organ weights in cynomolgus monkeys. To be noted: cynomolgus monkey, 40 mg/kg s.c.
Series [6] in a line: Hematological parameters in cynomolgus monkeys. To be noted: cynomolgus monkey, 40 mg/kg s.c., day 44.

In series [1], “TGATTTAATGGTTGCA [ISIS 569236] (cEt/MOE gapmer chemistry, further chemistry not given here)” had an HCT of 44%, a Hemoglobin of 13.1 g/dL, a Platelets of 358000 µL and an RBC of 5.7e+06 µL. In series [1], this sequence displayed a WBC of 14400 µL. In addition, the “full-length AR protein (western blot)” value in the series on full-length AR was “significantly reduced”. Moreover, in series [2], the “Plasma BUN” value was 24.9 mg/dL and the “Plasma Creatinine” value is reported as 0.87 mg/dL. Moreover, in series [3], the “Body Wt” value is 2.4 kg, the Heart weight is recorded as 8.4 g, the Kidney weight amounted to 12 g and the Liver weight is listed as 56 g. Moreover, in series [3], the “Mesenteric lymph nodes weight” value was found to be 2.4 g and the Spleen weight was 3.2 g. Further, the “AR RNA expression inhibited compared to the control group” value with AR mRNA came out at 19%. For the same sequence, in series [4] (sc, 40 mg/kg), the “Oligonucleotide concentration, Kidney” value stood at 1282 μg/g tissue and the “Oligonucleotide concentration, Liver” value is 898 μg/g tissue.

Take “TTGATTTAATGGTTGC [ISIS 560131] (MOE and (S)-cEt gapmer chemistry, further chemistry not given here)”: in series [1], the HCT is 44%, the Hemoglobin turned out to be 13.1 g/dL, the Platelets turned out to be 392000 µL and the RBC is 5.8e+06 µL. The WBC in series [1] was determined as 11300 µL. The “full-length AR protein (western blot)” value in the series with full-length AR is “significantly reduced”. Also, the “tolerability: body and organ weights” value in series [5] was “well tolerated in terms of the body and organ weights of the monkeys”. In series [2], the “Plasma BUN” value was determined as 23.7 mg/dL and the “Plasma Creatinine” value is listed as 0.84 mg/dL. Besides, in series [3], the “Body Wt” value came out at 2.4 kg, the Heart weight was determined as 9.8 g, the Kidney weight is 12 g and the Liver weight came to 58 g. In series [3], the “Mesenteric lymph nodes weight” value is listed as 2.0 g and the Spleen weight came to 2.5 g. The “tolerability: hematology” value in series [6] is listed as “well tolerated in terms of the hematology of the monkeys”. Further, the “AR RNA expression inhibited compared to the control group” value in the series on AR mRNA is reported as 35%. In addition, the K/L ratio in series [4] was determined as 2.6. The “Oligonucleotide concentration, Liver” value in series [4] (sc, 40 mg/kg) was determined as 793 μg/g tissue.

The record behind these values is patent USRE48461E1, “Modulation of androgen receptor expression” (Ionis Pharmaceuticals, Inc., priority 2012, dated 2021).
